In patent US8754079B2, “Cycloalkyl containing thienopyrimidines for pharmaceutical compositions” (Boehringer Ingelheim International GmbH, priority 2010, dated 2014):

Biological target: T1, MNK2 (Homo sapiens, UniProt Q9HBH9)
T1 construct: the open reading frames of human Mnk1 and Mnk2a were amplified from cDNA; made in house; host or cells: E. coli BL21
Assay: Mnk2a in vitro kinase assay (indirect fluorescence polarization)
Type: biochemical
Settings: pre-activated GST-Mnk2a 2.5 nM, 20 μM ATP, 30 μM substrate peptide
Procedure, shortened: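 Human GST-Mnk2a was expressed in E. coli and activated in vitro with 150 nM pre-activated ERK2 and 50 μM ATP in HEPES pH 7.4/MgCl2 buffer (45 min, 30 °C). Activity on an eIF4E Ser209-derived 12mer peptide was read by competitive fluorescence polarization with a phospho-specific antibody.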

T1 sequence (Q9HBH9 whole entry): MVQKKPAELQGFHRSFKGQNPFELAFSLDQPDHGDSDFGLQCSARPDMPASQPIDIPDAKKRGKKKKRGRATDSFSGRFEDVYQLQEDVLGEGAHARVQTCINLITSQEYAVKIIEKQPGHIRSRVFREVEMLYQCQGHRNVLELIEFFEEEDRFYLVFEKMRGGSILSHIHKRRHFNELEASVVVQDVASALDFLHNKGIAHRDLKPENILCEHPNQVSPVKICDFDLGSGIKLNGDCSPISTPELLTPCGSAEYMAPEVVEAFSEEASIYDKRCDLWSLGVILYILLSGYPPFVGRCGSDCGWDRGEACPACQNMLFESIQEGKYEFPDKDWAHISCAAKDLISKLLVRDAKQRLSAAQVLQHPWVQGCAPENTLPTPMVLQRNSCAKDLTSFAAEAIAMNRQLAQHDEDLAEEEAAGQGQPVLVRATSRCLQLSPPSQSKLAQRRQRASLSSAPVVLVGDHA

IC50 [nM] | SMILES
62 | COCCNC(=O)c1sc2ncnc(Nc3ccc(F)cc3O[C@@H]3CCCC[C@H]3O)c2c1C [Example 54, 4-[4-Fluoro-2-((1R,2R)-2-hydroxy-cyclohexyloxy)-phenylamino]-5-methyl-thieno[2,3-d]pyrimidine-6-carboxylic acid (2-methoxy-ethyl)-amide]
14 | COC1CCCC(Oc2cc(F)ccc2Nc2ncnc3sc(C(=O)NCC#CCN(C)C)c(C)c23)C1 (stereo not drawn) [Example 96]
36 | COC1CCCC(Oc2cc(F)ccc2Nc2ncnc3sc(C(=O)NCC4COCCN4)c(C)c23)C1 (stereo not drawn) [Example 99]
19 | COC1CCCC(Oc2ncccc2Nc2ncnc3sc(C(=O)NCC#N)c(C)c23)C1 (stereo not drawn) [Example 115]
36 | Cc1c(C(=O)NCCCN(C)C)sc2ncnc(Nc3ccc(F)cc3O[C@H]3CC[C@@H](O)CC3)c12 [Example 151, 4-[4-Fluoro-2-(cis-4-hydroxy-cyclohexyloxy)-phenylamino]-5-methyl-thieno[2,3-d]pyrimidine-6-carboxylic acid (3-dimethylamino-propyl)-amide]
9 | Cc1c(C(=O)NCCCN2CCCC2)sc2ncnc(Nc3ccc(F)cc3O[C@H]3CC[C@H](O)CC3)c12 [Example 153, 4-[4-Fluoro-2-(trans-4-hydroxy-cyclohexyloxy)-phenylamino]-5-methyl-thieno[2,3-d]pyrimidine-6-carboxylic acid (3-pyrrolidin-1-yl-propyl)-amide]
4 | Cc1c(C(N)=O)sc2ncnc(Nc3ccc(F)cc3O[C@H]3CC[C@H](O)CC3)c12 [Example 158, 4-[4-Fluoro-2-(trans-4-hydroxy-cyclohexyloxy)-phenylamino]-5-methyl-thieno[2,3-d]pyrimidine-6-carboxylic acid amide]
17 | Cc1c(C(=O)NCCCCO)sc2ncnc(Nc3ccc(F)cc3O[C@H]3CC[C@H](O)CC3)c12 [Example 161]
9 | Cc1c(C(=O)NCC#N)sc2ncnc(Nc3ccc(F)cc3O[C@H]3CC[C@H](O)CC3)c12 [Example 163]
16 | CNC(=O)CNC(=O)c1sc2ncnc(Nc3ccc(F)cc3O[C@H]3CC[C@H](O)CC3)c2c1C [Example 164]
8 | Cc1c(C(=O)NCC#CCN(C)C)sc2ncnc(Nc3ccc(F)cc3O[C@H]3CC[C@H](O)CC3)c12 [Example 165]
43 | Cc1c(C(=O)NCC(C)O)sc2ncnc(Nc3ccc(F)cc3O[C@H]3CC[C@H](O)CC3)c12 (stereo partly drawn) [Example 171]
30 | CO[C@H]1CC[C@H](Oc2cc(F)ccc2Nc2ncnc3sc(C(=O)NCC4COCCN4)c(C)c23)CC1 (stereo partly drawn) [Example 179]
21 | COC1CCC(Oc2cc(F)ccc2Nc2ncnc3sc(C(=O)NCCCCO)c(C)c23)CC1 (stereo not drawn) [Example 181]
15 | CO[C@H]1CC[C@H](Oc2cc(F)ccc2Nc2ncnc3sc(C(=O)NCC#N)c(C)c23)CC1 [Example 182]
20 | CO[C@H]1CC[C@H](Oc2cc(F)ccc2Nc2ncnc3sc(C(=O)NCc4cn(C)cn4)c(C)c23)CC1 [Example 186]
21 | CO[C@H]1CC[C@H](Oc2cc(F)ccc2Nc2ncnc3sc(C(=O)NCC#CCN(C)C)c(C)c23)CC1 [Example 187]
20 | CNC(=O)CNC(=O)c1sc2ncnc(Nc3ccc(F)cc3O[C@H]3CC[C@H](OC)CC3)c2c1C [Example 188]
30 | CO[C@H]1CC[C@H](Oc2cc(F)ccc2Nc2ncnc3sc(C(=O)NCCN4CCCCC4)c(C)c23)CC1 [Example 190]
43 | CO[C@H]1CC[C@H](Oc2cc(F)ccc2Nc2ncnc3sc(C(=O)NCCN(C)C)c(C)c23)CC1 [Example 193]

Further lines, the molecule ahead of its results:

SMILES | IC50 [nM]
Cc1c(C(N)=O)sc2ncnc(Nc3ccc(F)cc3O[C@H]3CCCC[C@@H]3O)c12 [Example 51, 4-[4-Fluoro-2-((1S,2S)-2-hydroxy-cyclohexyloxy)-phenylamino]-5-methyl-thieno[2,3-d]pyrimidine-6-carboxylic acid amide] | 13
Cc1c(C(N)=O)sc2ncnc(Nc3ccc(F)cc3O[C@@H]3CCCC[C@H]3O)c12 [Example 52, 4-[4-Fluoro-2-((1R,2R)-2-hydroxy-cyclohexyloxy)-phenylamino]-5-methyl-thieno[2,3-d]pyrimidine-6-carboxylic acid amide] | 30
Cc1c(C(=O)NCCCN(C)C)sc2ncnc(Nc3ccc(F)cc3O[C@@H]3CCCC[C@H]3O)c12 [Example 53, 4-[4-Fluoro-2-((1R,2R)-2-hydroxy-cyclohexyloxy)-phenylamino]-5-methyl-thieno[2,3-d]pyrimidine-6-carboxylic acid (3-dimethylamino-propyl)-amide] | 54
Cc1c(C(=O)NCCCN2CCCC2)sc2ncnc(Nc3ccc(F)cc3O[C@H]3CCC[C@H](O)C3)c12 [Example 75] | 18
COC1CCCC(Oc2cc(F)ccc2Nc2ncnc3sc(C(=O)NCC#CCN)c(C)c23)C1 (stereo not drawn) [Example 80] | 31
COC1CCCC(Oc2cc(F)ccc2Nc2ncnc3sc(C(=O)NCCCCO)c(C)c23)C1 (stereo not drawn) [Example 81] | 98
COC1CCCC(Oc2cc(F)ccc2Nc2ncnc3sc(C(=O)NCC4COCCN4)c(C)c23)C1 (stereo not drawn) [Example 84] | 91
COC1CCCC(Oc2cc(F)ccc2Nc2ncnc3sc(C(=O)NC4CCN(C)CC4)c(C)c23)C1 (stereo not drawn) [Example 86] | 93
COC1CCCC(Oc2cc(F)ccc2Nc2ncnc3sc(C(=O)NCCCN4CCCC4)c(C)c23)C1 (stereo not drawn) [Example 87] | 38
COC1CCCC(Oc2cc(F)ccc2Nc2ncnc3sc(C(=O)NC4CC4N)c(C)c23)C1 (stereo not drawn) [Example 90] | 34
COC1CCCC(Oc2cc(F)ccc2Nc2ncnc3sc(C(=O)NCC#N)c(C)c23)C1 (stereo not drawn) [Example 94] | 21
COC1CCCC(Oc2cc(F)ccc2Nc2ncnc3sc(C(=O)NC4CCN(C)CC4)c(C)c23)C1 (stereo not drawn) [Example 102] | 34
COC1CCCC(Oc2cc(F)ccc2Nc2ncnc3sc(C(=O)NCc4cn(C)cn4)c(C)c23)C1 (stereo not drawn) [Example 107] | 18
COC1CCCC(Oc2cc(F)ccc2Nc2ncnc3sc(C(=O)NCCCN(C)C)c(C)c23)C1 (stereo not drawn) [Example 108] | 19
COC1CCCC(Oc2ncccc2Nc2ncnc3sc(C(=O)NCC#CCN(C)C)c(C)c23)C1 (stereo not drawn) [Example 117] | 12
COC1CCCC(Oc2ncccc2Nc2ncnc3sc(C(=O)NC4CCN(C)CC4)c(C)c23)C1 (stereo not drawn) [Example 123] | 26
Cc1c(C(N)=O)sc2ncnc(Nc3ccc(F)cc3O[C@H]3CC[C@@H](O)CC3)c12 [Example 150] | 11
Cc1c(C(=O)NCCCN(C)C)sc2ncnc(Nc3ccc(F)cc3O[C@H]3CC[C@H](O)CC3)c12 [Example 152, 4-[4-Fluoro-2-(trans-4-hydroxy-cyclohexyloxy)-phenylamino]-5-methyl-thieno[2,3-d]pyrimidine-6-carboxylic acid (3-dimethylamino-propyl)-amide] | 11
Cc1c(C(=O)NCCO)sc2ncnc(Nc3ccc(F)cc3O[C@H]3CC[C@H](O)CC3)c12 [Example 155] | 9

SMILES | IC50 [nM]
Cc1c(C(=O)NCCCn2ccnc2)sc2ncnc(Nc3ccc(F)cc3O[C@H]3CC[C@H](O)CC3)c12 [Example 156] | 13
Cc1c(C(=O)N[C@H]2C[C@@H]2N)sc2ncnc(Nc3ccc(F)cc3O[C@H]3CC[C@H](O)CC3)c12 [Example 159] | 16
Cc1c(C(=O)NCC#CCN)sc2ncnc(Nc3ccc(F)cc3O[C@H]3CC[C@H](O)CC3)c12 [Example 160] | 6
Cc1c(C(=O)NCc2cnco2)sc2ncnc(Nc3ccc(F)cc3O[C@H]3CC[C@H](O)CC3)c12 [Example 162] | 10
Cc1c(C(=O)NCC2CNCCO2)sc2ncnc(Nc3ccc(F)cc3O[C@H]3CC[C@H](O)CC3)c12 (stereo partly drawn) [Example 166] | 11
Cc1c(C(=O)N[C@H]2CC[C@H](O)CC2)sc2ncnc(Nc3ccc(F)cc3O[C@H]3CC[C@H](O)CC3)c12 [Example 168] | 20
Cc1c(C(=O)NCCN2CCCCC2)sc2ncnc(Nc3ccc(F)cc3O[C@H]3CC[C@H](O)CC3)c12 [Example 170] | 19
Cc1c(C(=O)NCCCO)sc2ncnc(Nc3ccc(F)cc3O[C@H]3CC[C@H](O)CC3)c12 [Example 172] | 16
CCNC(=O)c1sc2ncnc(Nc3ccc(F)cc3O[C@H]3CC[C@H](O)CC3)c2c1C [Example 173] | 14
Cc1c(C(=O)NCc2cn(C)cn2)sc2ncnc(Nc3ccc(F)cc3O[C@H]3CC[C@H](O)CC3)c12 [Example 174] | 10
CO[C@H]1CC[C@H](Oc2cc(F)ccc2Nc2ncnc3sc(C(N)=O)c(C)c23)CC1 [Example 175, 4-[4-Fluoro-2-(trans-4-methoxy-cyclohexyloxy)-phenylamino]-5-methyl-thieno[2,3-d]pyrimidine-6-carboxylic acid amide] | 9
CO[C@H]1CC[C@H](Oc2cc(F)ccc2Nc2ncnc3sc(C(=O)NCC#CCN)c(C)c23)CC1 [Example 178] | 16
CO[C@H]1CC[C@H](Oc2cc(F)ccc2Nc2ncnc3sc(C(=O)NCC4CNCCO4)c(C)c23)CC1 (stereo partly drawn) [Example 180] | 16
CO[C@H]1CC[C@H](Oc2cc(F)ccc2Nc2ncnc3sc(C(=O)N[C@H]4CC[C@H](O)CC4)c(C)c23)CC1 [Example 183] | 23
CO[C@H]1CC[C@H](Oc2cc(F)ccc2Nc2ncnc3sc(C(=O)NCC(C)O)c(C)c23)CC1 (stereo partly drawn) [Example 184] | 38
CO[C@H]1CC[C@H](Oc2cc(F)ccc2Nc2ncnc3sc(C(=O)NCc4cnco4)c(C)c23)CC1 [Example 185] | 17
CO[C@H]1CC[C@H](Oc2cc(F)ccc2Nc2ncnc3sc(C(=O)N[C@H]4C[C@@H]4N)c(C)c23)CC1 [Example 189] | 28
CO[C@H]1CC[C@H](Oc2cc(F)ccc2Nc2ncnc3sc(C(=O)NCCCN4CCOCC4)c(C)c23)CC1 [Example 192, 4-[4-Fluoro-2-(trans-4-methoxy-cyclohexyloxy)-phenylamino]-5-methyl-thieno[2,3-d]pyrimidine-6-carboxylic acid (3-morpholin-4-yl-propyl)-amide] | 21
